Reference: PMC7405012, “Detection of Chaetomium globosum, Ch. cochliodes and Ch. rectangulare during the Diversity Tracking of Mycotoxin-Producing Chaetomium-like Isolates Obtained in Buildings in Finland” (Toxins, 2020)
In brackets after ≈: the same amount, converted by molar mass. Like-named read-outs stand apart in the source and are kept apart here.

How the values were obtained:
[1] = test system: murine neuroblastoma cells (MNA); experiment: Inhibition of cell proliferation (ICP) assay, MNA; type: cell-based
Protocol: The plate-grown biomass of the fungal pure cultures (100–300 mg) was extracted with ethanol as described earlier. The toxicity assays, namely BSMI assay after exposure for 30 min (rapid inhibition) and for one day (slow inhibition), SMID assay and ICP assay, were all described previously. The toxicity assays involving the ethanol extracts obtained from pure fungal cultures were performed using porcine cells (sperms and somatic cell lines) as indicators according to methods described before. The calculation of EC50—the half maximal effective concentration for the ethanol-dry substances and pure mycotoxins in the BSMI, SMID and ICP assays—were described previously.
The continuous cell line PK-15 (porcine kidney cells) and a malignant cell line (MNA cell line) provided by EVIRA (Helsinki, Finland) were used in the ICP assay. 5,5′,6,6′-tetrachloro-1,1′,3,3′-tetraethyl-benzimidazolylcarbocyanine iodide (JC-1, 3520-43-2), PI (25535-16-4) and calcein-AM (148504-34-1) were obtained from Invitrogen (Carlsbad, CA, USA). Alamethicin A4665 (T. arundinaceum) (CAS 27061-78-5), a mixture of alamethicin F50 peptaibols (MW 1962, 1976, 1976 and 1990), chaetoglobosin A (CAS 50335-03-0), sterigmatocystin (CAS 10048-13-5) and ochratoxin A (CAS 303-47-9) were obtained from Sigma-Aldrich (St. Louis, MO, USA). Malt extract and tryptic soy agar were obtained from Scharlab (Barcelona, Spain). The other chemicals were of analytical grade and were purchased from local suppliers. The biocides and the wetting agent Genapol-080 were purchased from Sigma-Aldrich Finland. The fungicide Boracol 10Rh was obtained from a local supplier. The selected biocides were Borax (600 µg mL^−1; sodium tetraborate, CAS: 1330-43-4), Boracol 10Rh containing disodium octaborate tetrahydrate (CAS: 12280-03-04) and didecyldimethylammonium chloride [CAS: 7173-51-5]), PHMB (CAS: 27083-27-8), phenoxyethanol (CAS: 122-99-6), chloramine, triclosan (5-Chloro-2-(2,4-dichlorophenoxy)phenol, CAS: 3380-34-5) and the wetting agent Genapol X-080 (CAS: 9043-30-5). Genapol X-080 and the biocides were purchased from Sigma-Aldrich, except for Boracol 10Rh, which was purchased from a local supplier.

Ch. globosum ABCD = experiment: Resistance to biocides: ascospore germination; type: cell-based, Chaetomium globosum; settings: strain ABCD, indoor Ch. globosum
Protocol: (§1) The toxicity of biocides and chemicals towards the indoor Chaetomium-like isolates and the reference indoor strains of the genera Aspergillus, Paecilomyces, Penicillium and Trichoderma was assessed in parallel with the six parameters presented in the Supplementary Materials: (1) germ tube assay (Figure S3); (2) estimation of turbidity (Figure S4); (3) visual emission of fluorescence (excitation at 360 nm); (4) visual resporulation of conidia; (5) inhibition of glucose consumption; and (6) resazurin reduction. All assays were performed in malt extract broth (12 g L^−1 malt extract, 7.2 µmol mL^−1 glucose, pH 5.5; Scharlab, Barcelona, Spain) in 96-well microtiter plates as described for the ICP assay.
(§2) The assays measuring inhibition of germination of conidia were done with spore suspensions of 1–2 × 10^6 fungal spores mL−^1. The tests were performed in malt extract broth (Oxoid, Hampshire United Kingdom) 12 g in 1 L, pH 5.5, glucose 7.1 mmol L^−1, and performed on microtiter plates as described by Bencsik et al. for the ICP assay. The germ tube germination is visualized in Figure S3, and the tests estimating turbidity and emission of fluorescence provoked by the germinated and metabolically active conidia and C. globosum ascospores are visualized in Figures S4 and S5. Examples of the tests estimating fluorescence emission, turbidity and re-sporulation of conidia and ascospores are compared in Figure S5. The difference of the endpoints measured with the different assays was between […]. The resazurin reduction assays (Figure S6) were performed as described for the ICP assay, except that the microtiter plates were visually inspected for the change of the blue/violet color of resazurin (indicating inhibition of germination of the exposed conidia) to the […] (indicating metabolic activity and germination of the exposed conidia).
(§3) The formation of germ tubes was inspected by a phase-contrast microscope (Olympus CKX41, Tokyo, Japan; magnification 400×) and an image recording software (Cellsense® standard version 11.0.06, Olympus Soft Imaging Solutions GmbH, Münster, Germany, 2012) after 1 and 2 days of incubation at 28 °C. The EC50 corresponded to the inhibition of 50% (estimated as the concentration between EC0 and EC100) of the conidia compared to the ethanol control (the growth medium containing 1% of ethanol). The tests were run in triplicate and calibrated with triclosan (CAS: 3380-34-5; Sigma Chemical Co., St. Louis, MO, USA) giving a mean SD of ±<20%.

Ch. globosum MH 52 = experiment: Resistance to biocides: ascospore germination; type: cell-based, Chaetomium globosum; settings: strain MH 52, indoor Ch. globosum
Protocol: as §1, §2, §3

Ch. globosum C22/LM = experiment: Resistance to biocides: ascospore germination; type: cell-based, Chaetomium globosum; settings: strain C22/LM, indoor Ch. globosum
Protocol: as §1, §2, §3

Ch. globosum HAS5 = experiment: Resistance to biocides: ascospore germination; type: cell-based, Chaetomium globosum; settings: strain HAS5, indoor Ch. globosum
Protocol: as §1, §2, §3

Ch. globosum MO9 = experiment: Resistance to biocides: ascospore germination; type: cell-based, Chaetomium globosum; settings: strain MO9, indoor Ch. globosum
Protocol: as §1, §2, §3

Ch. globosum RUK10 = experiment: Resistance to biocides: ascospore germination; type: cell-based, Chaetomium globosum; settings: strain RUK10, indoor Ch. globosum
Protocol: as §1, §2, §3

Ch. globosum 2b/26 = experiment: Resistance to biocides: ascospore germination; type: cell-based, Chaetomium globosum; settings: strain 2b/26, indoor Ch. globosum
Protocol: as §1, §2, §3

Ch. globosum 3b/AP = experiment: Resistance to biocides: ascospore germination; type: cell-based, Chaetomium globosum; settings: strain 3b/AP, indoor Ch. globosum
Protocol: as §1, §2, §3

Ch. globosum MTAV35 = experiment: Resistance to biocides: ascospore germination; type: cell-based, Chaetomium globosum; settings: strain MTAV35, indoor Ch. globosum, median of four independent measurements with five methods
Protocol: as §1, §2, §3

Ch. globosum MTAV37 = experiment: Resistance to biocides: ascospore germination; type: cell-based, Chaetomium globosum; settings: strain MTAV37, indoor Ch. globosum
Protocol: as §1, §2, §3

[2] = test system: porcine kidney cells (PK-15); experiment: cells; type: cell-based
[3] = Mus musculus, Neuroblastoma cell, mammalian cell line MNA (ICT assay), read-out: EC50
[4] = Chaetomium globosum, read-out: EC50
[5] = Chaetomium globosum, MH52, read-out: EC50
[6] = Sus scrofa, mammalian cell line PK-15 (ICT assay), read-out: EC50
[7] = mammalian cell line MNA (ICT assay)
[8] = mammalian cell line PK-15 (ICT assay)

| Compound | EC50 [1, 3] [µg/mL] | EC50 (Ch. globosum ABCD; [4]) [µg/mL] | EC50 (Ch. globosum MH 52; [5]) [µg/mL] | EC50 (Ch. globosum C22/LM; [4]) [µg/mL] | EC50 (Ch. globosum HAS5; [4]) [µg/mL] | EC50 (Ch. globosum MO9; [4]) [µg/mL] | EC50 (Ch. globosum RUK10; [4]) [µg/mL] | EC50 (Ch. globosum 2b/26; [4]) [µg/mL] | EC50 (Ch. globosum 3b/AP; [4]) [µg/mL] | EC50 (Ch. globosum MTAV35; [4]) [µg/mL] | EC50 (Ch. globosum MTAV37; [4]) [µg/mL] | EC50 [2, 6] [µg/mL] | EC50 [1, 7] [µg/mL] | EC50 (Ch. globosum C22/LM) [µg/mL] | EC50 (Ch. globosum HAS5) [µg/mL] | EC50 (Ch. globosum MO9) [µg/mL] | EC50 (Ch. globosum RUK10) [µg/mL] | EC50 (Ch. globosum 2b/26) [µg/mL] | EC50 (Ch. globosum 3b/AP) [µg/mL] | EC50 [2, 8] [µg/mL] | also measured |
| --- | --- | --- | --- | --- | --- | --- | --- | --- | --- | --- | --- | --- | --- | --- | --- | --- | --- | --- | --- | --- | --- |
| O=BOB(O)OB(O)OB=O [Borax, sodium tetraborate] | 150 | 5000 | 5000 | > 5000 | > 5000 | > 5000 | 5000 | > 5000 | > 5000 | 5000 | 5000 | 600 | – | – | – | – | – | – | – | – | – |
| polyhexamethylene biguanide hydrochloride [PHMB] | – | – | – | – | – | – | – | – | – | – | – | – | 4 | 8 | 8 | 4 | 4 | 8 | 8 | 15 | EC50 (Ch. globosum ABCD): 4 µg/mL; EC50 (Ch. globosum MH 52): 4 µg/mL; EC50 (Ch. globosum MTAV35): 4 µg/mL; EC50 (Ch. globosum MTAV37): 4 µg/mL |
| NCl [Chloramine, chloramine] | – | – | – | – | – | – | – | – | – | – | – | – | 80 (≈ 1550 µM) | 2500 (≈ 48600 µM) | 2500 (≈ 48600 µM) | 2500 (≈ 48600 µM) | 2500 (≈ 48600 µM) | 2500 (≈ 48600 µM) | 2500 (≈ 48600 µM) | 150 (≈ 2910 µM) | – |
| C/C1=C\[C@@H](C)C/C=C/[C@H]2[C@@H]3O[C@]3(C)[C@@H](C)[C@H]3[C@H](Cc4c[nH]c5ccccc45)NC(=O)[C@]32C(=O)/C=C/C(=O)[C@@H]1O [Chaetoglobosin A, chaetoglobosin A] | – | – | – | – | – | – | – | – | – | – | – | – | – | – | – | – | – | – | – | – | EC50 ([1]; Mus musculus, Neuroblastoma cell, 48 h, MNA, 2 days, 37 °C, read-out: EC50 ICP MNA 2 days): 1 µg/mL (≈ 1.89 µM); EC50 ([2]; Sus scrofa, 48 h, PK-15, 2 days, 37 °C, read-out: EC50 ICP PK-15 2 days): 3 µg/mL (≈ 5.67 µM) |
| OCCOc1ccccc1 [Phenoxy-ethanol, phenoxyethanol] | 400 (≈ 2900 µM) | 1500 (≈ 10900 µM) | 1500 (≈ 10900 µM) | 1500 (≈ 10900 µM) | 1500 (≈ 10900 µM) | 700 (≈ 5070 µM) | 1500 (≈ 10900 µM) | 1500 (≈ 10900 µM) | 1500 (≈ 10900 µM) | 700 (≈ 5070 µM) | 700 (≈ 5070 µM) | 1500 (≈ 10900 µM) | – | – | – | – | – | – | – | – | – |
| Oc1cc(Cl)ccc1Oc1ccc(Cl)cc1Cl [Triclosan, 5-Chloro-2-(2,4-dichlorophenoxy)phenol] | 4 to 8 (≈ 13.8 to 27.6 µM) | 4 (≈ 13.8 µM) | 2 (≈ 6.91 µM) | 4 (≈ 13.8 µM) | 2 (≈ 6.91 µM) | 2 (≈ 6.91 µM) | 2 (≈ 6.91 µM) | 4 (≈ 13.8 µM) | 4 (≈ 13.8 µM) | 2 (≈ 6.91 µM) | 4 (≈ 13.8 µM) | 8 to 15 (≈ 27.6 to 51.8 µM) | – | – | – | – | – | – | – | – | – |
